Experimental data reported in patent US4020111A, “Propynyloxy alkyl arene insecticides” (priority 1975, dated 1977).

Experiments:
houseflies = test: percent kill with Diazinon, Table XXVII (strain not given); format: in vivo, housefly; conditions: Diazinon 5 + synergist 10 μg/fly, 1440 min
[1] = tested on: German male cockroaches (Blatella Germanicus); test: topical application to thorax, 24 hour mortality of German male cockroaches; format: in vivo, German cockroach (Blatella Germanicus)
Experimental: The synergistic effect with mobam of synergist compounds I-B, II-H, II-K and IV-C is further illustrated by the 24 hour mortality data of German male cockroaches (Blatella Germanicus) shown in Table XXXX. The synergists and insecticide were diluted in acetone and applied in small droplets to the thorax of the insect. These doses of synergist alone gave zero percent insect mortality.
The synergistic effect with GS 13005 of compounds I-B, II-H, II-K, II-P, II-Q, II-R and IV-C is illustrated by the 24 hour mortality of German male cockroaches shown in Table XXXXI. These doses of synergist alone caused zero percent insect mortality.

Structure (SMILES) | percent kill (houseflies) [%] | insect mortality, synergist alone ([1]; synergist alone at doses of Table XXXX) | insect mortality, synergist alone ([1]; synergist alone at doses of Table XXXXI)
C#CCON=C(C)c1ccc(Cl)cc1 [I-D] | 100 |  | 
C#CCON=Cc1ccc(Cl)cc1Cl [I-G] | 90 |  | 
C#CCOCc1c(Cl)cccc1[N+](=O)[O-] [II-K] |  | zero | zero
